Some test systems named below: A549 NSCLC; COLO 205 colon; HL-60(TB) leukemia; KM12 colon; MDA-MB-231 breast; MDA-MB-435; MDA-N; SF-295 CNS; SK-MEL-5 melanoma; SN12C renal.
Holding throughout (assay): NCI anticancer screen, dose series, 48 h

Molecules are shown by their SMILES. “And” between values parts separate entries of the source, which are not always exact repeats. Equal entries are not always repeated.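 Assay format: 96-well plates, 48-hour exposure. GI50 marks 50% less growth. Definition used: TGI = concentration required for complete inhibition of growth.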

With `NCCNc1nc(N2CCCC2)c2nc(Cl)c(NCc3ccccc3)nc2n1`, the TGI in the experiment on A549 NSCLC amounted to 3.36 µM; in the experiment with COLO 205 colon, 3.29 µM; with HL-60(TB) leukemia, 3.99 µM; in the experiment on KM12 colon, 2.93 µM; in the experiment with MDA-MB-231 breast it was 2.87 µM; with MDA-MB-435, 3.19 µM. Moreover, the TGI was determined as 3.1 µM in the experiment on MDA-N, 3.5 µM with SF-295 CNS, 3.27 µM with SK-MEL-5 melanoma and 2.92 µM with SN12C renal.
Consider `O=C(O)C(CSC(c1ccccc1)(c1ccccc1)c1ccccc1)N=Cc1cccs1` (stereo unspecified), for which the TGI is more than 100 µM in the experiment on A549 NSCLC; 6.49 µM with COLO 205 colon; 26.6 µM in the experiment on HL-60(TB) leukemia; more than 60.7 µM in the experiment with KM12 colon; 7.01 µM in the experiment with MDA-MB-231 breast; 1.21 µM with MDA-MB-435. Besides, the TGI in the experiment with MDA-N is 1.94 µM; with SF-295 CNS it was more than 100 µM; in the experiment on SK-MEL-5 melanoma, more than 24.7 µM; in the experiment with SN12C renal, 98.1 µM.
For `CC(Sc1ccccc1)C(CO)(CO)[N+](=O)[O-]` (stereo unspecified), the TGI was determined as 34.1 µM with A549 NSCLC; 16 µM in the experiment with HL-60(TB) leukemia; 28.9 µM in the experiment on SF-295 CNS; 25.8 µM with SK-MEL-5 melanoma; 31.2 µM in the experiment on SN12C renal.
Consider `Nc1ccccc1N/C(=C\C(=O)C(Cl)(Cl)Cl)c1ccccc1`, for which the TGI in the experiment on A549 NSCLC was more than 100 µM; in the experiment on COLO 205 colon, 98.1 µM; in the experiment on HL-60(TB) leukemia it was 55.3 µM; with KM12 colon it was more than 100 µM; in the experiment on MDA-MB-231 breast, 36.2 µM; with MDA-MB-435 it was more than 100 µM. Further, the TGI is 39 µM in the experiment on MDA-N, more than 100 µM in the experiment on SF-295 CNS, 29 µM with SK-MEL-5 melanoma and 45.6 µM in the experiment on SN12C renal.
`CC[C@@]1(O)C(=O)OCc2c1cc1n(c2=O)Cc2c-1nc1ccc(O)cc1c2CC[Si](C)(C)C`: the TGI with A549 NSCLC is 0.24 µM and 0.167 µM; with COLO 205 colon, 1.16 µM; in the experiment on HL-60(TB) leukemia it was less than 0.001 µM; with KM12 colon, 0.0659 µM; with MDA-MB-231 breast it was 12.9 µM; in the experiment on MDA-MB-435, 0.495 µM and 0.887 µM. Besides, the TGI was 0.0296 µM with SF-295 CNS; 0.123 µM and 0.0438 µM in the experiment on SK-MEL-5 melanoma. For the same compound, in the experiment with MDA-MB-231 breast, the GI50 was 0.12 µM.
As to `O=C(CCN1CC2CCC(CC2)C1)c1cccs1`, the TGI is more than 57.6 µM in the experiment with A549 NSCLC; 34.7 µM in the experiment with COLO 205 colon; 44.3 µM in the experiment with HL-60(TB) leukemia; 40.7 µM in the experiment on KM12 colon; 34.4 µM with MDA-MB-231 breast; 42.3 µM with MDA-MB-435. The TGI was 34.7 µM in the experiment on MDA-N, more than 100 µM in the experiment on SF-295 CNS, more than 100 µM in the experiment with SK-MEL-5 melanoma and 37.6 µM in the experiment on SN12C renal.
Regarding `COc1ccc(N=C2C(=O)C3=C(OC(C)(C)CC3)c3ccccc32)cc1`, the TGI is 1.94 µM in the experiment on A549 NSCLC; 5.8 µM in the experiment with COLO 205 colon; 4.38 µM with HL-60(TB) leukemia; 1.97 µM in the experiment on KM12 colon; 5.44 µM with MDA-MB-231 breast; 0.502 µM in the experiment on MDA-MB-435. Besides, the TGI came to 1.26 µM with MDA-N, 1.56 µM in the experiment on SF-295 CNS, 1.53 µM in the experiment with SK-MEL-5 melanoma and 1.63 µM in the experiment with SN12C renal.
Consider `CN1C2CCC1C(C(O)c1ccccc1[N+](=O)[O-])C(=O)C2` (stereo unspecified), for which the TGI in the experiment with A549 NSCLC was more than 100 µM; in the experiment on COLO 205 colon, more than 100 µM; in the experiment with HL-60(TB) leukemia it was more than 100 µM; in the experiment with KM12 colon, more than 100 µM; in the experiment with MDA-MB-231 breast, more than 100 µM; in the experiment with MDA-MB-435 it was 53 µM. In addition, the TGI was 75.7 µM in the experiment on MDA-N, more than 100 µM in the experiment on SF-295 CNS, more than 100 µM in the experiment with SK-MEL-5 melanoma and more than 100 µM in the experiment with SN12C renal.
`COC(=O)C1C(C)N1C` (stereo unspecified): the TGI in the experiment with A549 NSCLC, in the experiment with COLO 205 colon, with HL-60(TB) leukemia, in the experiment on KM12 colon, in the experiment on SK-MEL-5 melanoma and in the experiment with SN12C renal was more than 100 µM throughout.
Take `N#CC(c1ccccc1)N1CCCN(C(C#N)c2ccccc2)C1c1ccccc1O` (stereo unspecified): the TGI with A549 NSCLC, in the experiment with COLO 205 colon, with HL-60(TB) leukemia, with KM12 colon, in the experiment on MDA-MB-231 breast and in the experiment on MDA-MB-435 was more than 100 µM throughout. Besides, the TGI in the experiment on MDA-N, with SF-295 CNS, with SK-MEL-5 melanoma and in the experiment with SN12C renal was more than 100 µM each time.
Regarding `O=S1(=O)OC(c2ccc(O)cc2)(c2ccc(O)cc2)c2ccccc21`, the TGI with A549 NSCLC, in the experiment with COLO 205 colon, in the experiment with HL-60(TB) leukemia, with KM12 colon, in the experiment with MDA-MB-231 breast and in the experiment with MDA-MB-435 was more than 100 µM in each case. Besides, the TGI in the experiment on SF-295 CNS, with SK-MEL-5 melanoma and with SN12C renal was more than 100 µM throughout.
Consider `Nc1nc(N)c2c(n1)NC(c1ccccc1)CC(/C=C/c1ccc(Cl)cc1)=N2` (stereo unspecified), for which the TGI in the experiment on A549 NSCLC was 60.8 µM; in the experiment with COLO 205 colon, 7.5 µM; in the experiment with HL-60(TB) leukemia it was 28.2 µM; in the experiment on KM12 colon, 13.6 µM; in the experiment with MDA-MB-231 breast, 18.4 µM; with MDA-MB-435, 21.1 µM. Further, the TGI came out at 24.4 µM in the experiment on MDA-N, 36.2 µM in the experiment on SF-295 CNS, 23.4 µM in the experiment with SK-MEL-5 melanoma and 23.6 µM with SN12C renal.
On to `CC(=O)N(C)c1ccc2c(ccc[n+]2[O-])c1[N+](=O)[O-]`, for which the TGI with A549 NSCLC, with COLO 205 colon, with HL-60(TB) leukemia, in the experiment on KM12 colon, in the experiment with SF-295 CNS and with SK-MEL-5 melanoma was more than 100 µM in each case. Moreover, the TGI in the experiment on SN12C renal was more than 100 µM.
In the case of `Nc1ccc2c(c1)C(=O)N(O)C2=O`, the TGI in the experiment on A549 NSCLC, in the experiment on HL-60(TB) leukemia, with KM12 colon, in the experiment on SF-295 CNS and in the experiment with SN12C renal was more than 100 µM each time.
As for `C[C@]12CC[C@@H]3c4ccccc4CC[C@H]3[C@@H]1CC[C@@H]2O`, the TGI in the experiment on A549 NSCLC, with COLO 205 colon, in the experiment with KM12 colon, with SF-295 CNS and with SN12C renal was more than 100 µM each time.

These data come from PubChem BioAssay (NCI).
